Assay results reported in US20080132446A1, “Uses of neuronal pannexins for therapy and diagnosis in mammals” (INSTITUT PASTEUR, priority 2003, published 2008).
Where “and” joins values, the source holds several entries; their conditions need not be identical. Identical values can stand only once. Entries after “also recorded” stand apart in the source; their conditions may differ. Blank lines part the entries; values can stand above or below the compound they belong to.

Key:
Assay type in all cases: cell-based
Px1 hemi-channels = target: T1, Px1 hemi-channels (Rattus norvegicus, UniProt P60570); assay: Px1 hemi-channel currents in single Xenopus oocytes (two-electrode voltage-clamp)
T1 construct: expressed in transfected cells; host or cells: Xenopus laevis oocytes injected with in vitro transcribed RNA (pBSxG vector) plus antisense to endogenous Cx38
T1 sequence (P60570 whole entry): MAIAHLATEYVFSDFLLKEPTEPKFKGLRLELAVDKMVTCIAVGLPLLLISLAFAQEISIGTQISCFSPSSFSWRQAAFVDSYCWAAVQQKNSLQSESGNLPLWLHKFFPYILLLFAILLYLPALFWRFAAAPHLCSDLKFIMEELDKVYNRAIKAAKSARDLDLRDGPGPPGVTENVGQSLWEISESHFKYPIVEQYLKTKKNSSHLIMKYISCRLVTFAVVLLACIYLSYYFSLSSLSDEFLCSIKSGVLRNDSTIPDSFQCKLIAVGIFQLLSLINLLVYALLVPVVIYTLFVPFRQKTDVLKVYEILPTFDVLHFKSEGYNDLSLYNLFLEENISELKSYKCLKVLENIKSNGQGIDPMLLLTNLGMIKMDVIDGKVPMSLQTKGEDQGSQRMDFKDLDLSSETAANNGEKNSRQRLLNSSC
Description: For physiological analysis, cells were injected with a total volume of 40 nl of either an antisense oligonucleotide (3 ng/cell) to suppress the endogenous Xenopus Cx38 (30), or a mixture of antisense plus the specified RNA (20-80 ng/cell). The ability of pannexins to form hemi-channels was assessed in single oocytes 2-4 days after RNA injection, using a two-electrode voltage-clamp.
Whole-cell membrane currents (Im) were measured from single oocytes co-injected with pannexin RNAs and an oligonucleotide antisense to Xenopus Cx38 (FIG. 3A). Cells were initially clamped at a membrane potential (Vm) of −40 mV and depolarizing steps lasting 2 sec were applied in 10 mV increments up to +60 mV (bottom traces).
(§1) Stage V-VI cells were individually selected under a dissecting microscope and cultured thereafter in control medium at 18° C. For physiological analysis, all cells were injected with a total volume of 40 nl of either an antisense oligonucleotide (3 ng/cell) to suppress the endogenous Xenopus Cx38 (30; 51), or a mixture of antisense (as above) plus the specified pannexin or connexin RNA. The following amounts of RNAs were injected: 40-80 ng/cell for Px1 and Px2 RNAs, either separately or co-injected at a 1:1 ratio; 4 ng/cell for Cx46; 10-20 ng/cell for Cx52.6. For analysis of Cx46 hemi-channels, the extracellular Ca^2+ concentration was raised to 2.9 mM to prevent the lysis of the injected oocytes that occurs in control medium, which contains 0.9 mM Ca^2+ (53). To characterize hemi-channel activity, current recordings were performed in single oocytes 24-96 hr after RNA injection, using a two-electrode voltage-clamp procedure.
(§2) The setup, hardware and software used for electrophysiological measurements and data analysis were as previously described (54; 49). Cells were clamped at −40 mV, and whole cell currents recorded in response to depolarizing voltage steps (from −20 to +60 mV in 20 mV increments) imposed for 2 sec. Current outputs were filtered at 200 Hz and sampled at 500 Hz.
All experiments were carried out at 18° C. Carbenoxolone (the succinyl ester of glycyrrhetinic acid), β-glycyrrhetinic acid and flufenamic (Sigma-Aldrich) were prepared freshly by dissolving them in either water (in the case of carbenoxolone) or dimethyl sulfoxide (DMSO), whose final concentration never exceeded 0.1%. […] Oocytes were placed on a Teflon tubing in a perfusion chamber and drugs were delivered using an electronically controlled gravity flow perfusion system (ALA Scientific Instruments, Westbury, N.Y.). […] Current-voltage (I-V) relationships were generated by plotting peak current values above holding currents (ΔIm) versus membrane potential. The time constants (τ) of voltage-dependent transitions of hemi-channel currents were calculated using data fitting functions in Origin 6.0 (Microcal Software, Northampton, Mass.). In all experiments, positive controls showing the effect of the tested drugs were routinely included.

Px1/Px2 hemi-channels = target: T2, Px1/Px2 hemi-channels (Rattus norvegicus, UniProt P60570+P60571); assay: Heteromeric Px1/Px2 hemi-channel currents in single Xenopus oocytes (two-electrode voltage-clamp)
T2 construct: expressed in transfected cells; host or cells: Xenopus laevis oocytes co-injected with Px1 and Px2 RNA (1:1) plus antisense to endogenous Cx38
T2 sequence (P60570 whole entry): as above
T2 sequence (P60571 11-674): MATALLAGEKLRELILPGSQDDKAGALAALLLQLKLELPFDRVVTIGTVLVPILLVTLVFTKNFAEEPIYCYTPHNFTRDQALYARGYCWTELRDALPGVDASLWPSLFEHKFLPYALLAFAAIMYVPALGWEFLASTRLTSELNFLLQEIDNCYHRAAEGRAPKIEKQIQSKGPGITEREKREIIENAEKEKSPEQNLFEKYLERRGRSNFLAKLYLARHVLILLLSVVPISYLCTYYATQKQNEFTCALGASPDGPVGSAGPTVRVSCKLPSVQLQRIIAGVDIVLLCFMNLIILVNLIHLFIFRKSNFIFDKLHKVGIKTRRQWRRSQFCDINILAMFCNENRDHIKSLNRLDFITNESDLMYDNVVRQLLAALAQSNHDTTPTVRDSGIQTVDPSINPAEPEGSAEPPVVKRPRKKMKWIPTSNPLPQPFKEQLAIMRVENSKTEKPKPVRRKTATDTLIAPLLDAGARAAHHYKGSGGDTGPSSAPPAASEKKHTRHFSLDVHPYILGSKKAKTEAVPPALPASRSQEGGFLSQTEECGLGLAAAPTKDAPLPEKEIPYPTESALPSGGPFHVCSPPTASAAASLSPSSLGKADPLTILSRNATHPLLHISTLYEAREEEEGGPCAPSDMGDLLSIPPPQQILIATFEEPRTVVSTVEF
Description: as §1, §2
All experiments were carried out at 18° C. Carbenoxolone (the succinyl ester of glycyrrhetinic acid), β-glycyrrhetinic acid and flufenamic (Sigma-Aldrich) were prepared freshly by dissolving them in either water (in the case of carbenoxolone) or dimethyl sulfoxide (DMSO), whose final concentration never exceeded 0.1%. […] Oocytes were placed on a Teflon tubing in a perfusion chamber and drugs were delivered using an electronically controlled gravity flow perfusion system (ALA Scientific Instruments, Westbury, N.Y.). Cells were incubated for 15-30 minutes in the presence of the different drugs and reversibility was recorded after extensive washings in control medium. Current-voltage (I-V) relationships were generated by plotting peak current values above holding currents (ΔIm) versus membrane potential. The time constants (τ) of voltage-dependent transitions of hemi-channel currents were calculated using data fitting functions in Origin 6.0 (Microcal Software, Northampton, Mass.). In all experiments, positive controls showing the effect of the tested drugs were routinely included.

Cx46 hemi-channels = target: T3, Cx46 hemi-channels (Rattus norvegicus, UniProt P29414); assay: Cx46 hemi-channel currents in single Xenopus oocytes (two-electrode voltage-clamp)
T3 construct: expressed in transfected cells; host or cells: Xenopus laevis oocytes injected with Cx46 RNA (4 ng/cell) plus antisense to endogenous Cx38
Description: as §1, §2
All experiments were carried out at 18° C. Carbenoxolone (the succinyl ester of glycyrrhetinic acid), β-glycyrrhetinic acid and flufenamic (Sigma-Aldrich) were prepared freshly by dissolving them in either water (in the case of carbenoxolone) or dimethyl sulfoxide (DMSO), whose final concentration never exceeded 0.1%. […] Cells were incubated for 15-30 minutes in the presence of the different drugs and reversibility was recorded after extensive washings in control medium. […] The time constants (τ) of voltage-dependent transitions of hemi-channel currents were calculated using data fitting functions in Origin 6.0 (Microcal Software, Northampton, Mass.). […]

inhibition of Px1 currents (Px1 hemi-channels; 30 μM FFA, 30 min, at the more positive potentials): 10-15%
extent of Px1 channel blockade (Px1 hemi-channels; highest FFA concentration used (300 μM), +60 mV): ≤ 33%
inhibitory effect on pannexins (Px1 hemi-channels; summary statement): only a modest inhibitory effect
inhibition of Px1/Px2 current amplitudes at +60 mV (Px1/Px2 hemi-channels; 30 μM FFA, n=12): about 15%
Px1/Px2 current amplitude at +60 mV (Px1/Px2 hemi-channels; 30 μM FFA, 603±123 nA in MB, n=12): 504±101 nA
Px1/Px2 current amplitude at +60 mV (Px1/Px2 hemi-channels; 300 μM FFA, 609±135 nA before, n=11): 448±104 nA
inhibition at 300 µM (Px1/Px2 hemi-channels; highest FFA concentration (300 μM), n=11, read-out: inhibition of Px1/Px2 current amplitudes at +60 mV): 27%
Compound: O=C(O)c1ccccc1Nc1cccc(C(F)(F)F)c1 [flufenamic acid]
effect on time constant (τ) of Px1 channel closure (Px1 hemi-channels; 300 μM FFA, +60 mV, listed as FFA): did not affect the time constant of channel closure; also recorded: did not show any appreciable change
effect on Px1 hemi-channels (Px1 hemi-channels; increasing FFA concentrations up to 300 μM, 30 min, listed as FFA): moderate inhibition of Px1 currents; also recorded: modest inhibition of Px1 hemi-channels only at the highest dose
effect on Cx46 hemi-channels (Cx46 hemi-channels; 30 μM FFA, 30 min application, starting with the 0 mV depolarization step): strong (P<0.005) and fully reversible inhibition
effect on Cx46 hemi-channel currents (Cx46 hemi-channels; increasing FFA concentrations, 300 μM FFA, 30 min, listed as FFA): virtually suppressed Cx46 hemi-channels; also recorded: almost complete blockade

effect on time constant (τ) of Px1 channel closure (Px1 hemi-channels; 3 μM CBX, +60 mV): gated much faster than in control medium
time constants (τ) of Px1 channel closure, faster than in control medium (Px1 hemi-channels; 3 μM CBX, depolarized to +60 mV from −40 mV, first order exponential decay fit): approximately 10 times
decrease of Px1 hemi-channel currents (Px1 hemi-channels; 10 μM CBX, 30 min incubation): 50-60%
effect on Px1 currents (Px1 hemi-channels; 30 μM carbenoxolone, 10-30 min incubation): completely suppressed Px1 currents
peak amplitude of Px1 currents at +60 mV (Px1 hemi-channels; 30 μM carbenoxolone, 10-30 min incubation, control medium 1189±170 nA, n=4): 255±47 nA
Hill coefficient (Px1 hemi-channels; concentration dependence of blockade of Px1 hemi-channel currents): ~1
IC50 (Px1 hemi-channels; normalized peak currents at +60 mV, fit to Hill equation, 3-9 cells, read-out: IC50 of blockade of Px1 hemi-channel currents): 5 µM and ~5 µM
reversibility of inhibition of Px1 hemi-channels (Px1 hemi-channels; up to highest dose tested (100 μM), washout and 30 min in control medium): always reversible
effect on Px1 hemi-channel currents (Px1 hemi-channels; very low CBX concentrations (<1 μM)): ineffective
decrease of Px1/Px2 hemi-channel currents (Px1/Px2 hemi-channels; 10 μM CBX, 30 min incubation): 50-60%
current amplitude at the +60 mV depolarization step (Px1/Px2 hemi-channels; 10 μM CBX, control medium 612±50 nA, n=6 cells): 266±24 nA
current amplitude at the +60 mV depolarization step after reversibility period (Px1/Px2 hemi-channels; after 10 μM CBX, washout and 30 min in control medium, n=6 cells): 541±70 nA
Compound: CC1(C)[C@@H](OC(=O)CCC(=O)O)CC[C@]2(C)[C@H]3C(=O)C=C4[C@@H]5C[C@@](C)(C(=O)O)CC[C@]5(C)CC[C@@]4(C)[C@]3(C)CC[C@@H]12 [carbenoxolone]
effect on Px1 hemi-channel currents (Px1 hemi-channels; 50 μM, 30 min incubation, reversible on washout, listed as CBX): robust and reversible decrease; also recorded: strongly blocked
effect on I-V relationship of Cx46-expressing oocytes (Cx46 hemi-channels; 10 μM CBX, 30 min incubation): virtually identical to that measured in control medium

Compound: CC1(C)[C@@H](O)CC[C@]2(C)[C@H]3C(=O)C=C4[C@H]5C[C@@](C)(C(=O)O)CC[C@]5(C)CC[C@@]4(C)[C@]3(C)CC[C@@H]12 [βGA, β-glycyrrhetinic acid]
effect on Px1 hemi-channel currents (Px1 hemi-channels; 50 μM, 30 min incubation, reversible on washout): robust and reversible decrease; also recorded: strongly blocked
